Tested on: 898857-211-R-J1-PDC complex spheroids, growth % test/control
Experiment: Anticancer human tumor 898857-211-R-J1-PDC patient-derived melanoma cell line growth inhibition [RAS]
Conditions: for IC50: curve of first compound; for viability, T/C: stronger effect = lower value
Procedure, shortened: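 Tumour cells grown as complex spheroids with HUVEC endothelial cells and mesenchymal stem cells, treated with RAS pathway inhibitor combinations. Each agent spans half-log steps from near clinical Cmax, or 10 microM where Cmax is unknown.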

[1] = second compound 0.0316 µM, first compound 0.0316 µM
[2] = second compound 0.0316 µM, first compound 0.1 µM
[3] = second compound 0.0316 µM, first compound 0.316 µM
[4] = second compound 0.0316 µM, first compound 1 µM
[5] = second compound 0.0316 µM, first compound 3.16 µM
[6] = second compound 0.0316 µM, first compound 10 µM
[7] = second compound 0.1 µM, first compound 0.0316 µM
[8] = second compound 0.1 µM, first compound 0.1 µM
[9] = second compound 0.1 µM, first compound 0.316 µM
[10] = second compound 0.1 µM, first compound 1 µM
[11] = second compound 0.1 µM, first compound 3.16 µM
[12] = second compound 0.1 µM, first compound 10 µM
[13] = second compound 0.316 µM, first compound 0.0316 µM
[14] = second compound 0.316 µM, first compound 0.1 µM
[15] = second compound 0.316 µM, first compound 0.316 µM
[16] = second compound 0.316 µM, first compound 1 µM
[17] = second compound 0.316 µM, first compound 3.16 µM
[18] = second compound 0.316 µM, first compound 10 µM
[19] = second compound 1 µM, first compound 0.0316 µM
[20] = second compound 1 µM, first compound 0.1 µM
[21] = second compound 1 µM, first compound 0.316 µM
[22] = second compound 1 µM, first compound 1 µM
[23] = second compound 1 µM, first compound 3.16 µM
[24] = second compound 1 µM, first compound 10 µM
[25] = second compound 3.16 µM, first compound 0.0316 µM
[26] = second compound 3.16 µM, first compound 0.1 µM
[27] = second compound 3.16 µM, first compound 0.316 µM
[28] = second compound 3.16 µM, first compound 1 µM
[29] = second compound 3.16 µM, first compound 3.16 µM
[30] = second compound 3.16 µM, first compound 10 µM
[31] = second compound 10 µM, first compound 0.0316 µM
[32] = second compound 10 µM, first compound 0.1 µM
[33] = second compound 10 µM, first compound 0.316 µM
[34] = second compound 10 µM, first compound 1 µM
[35] = second compound 10 µM, first compound 3.16 µM
[36] = second compound 10 µM, first compound 10 µM
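Note: spheroids exposed to compound for seven days before readout.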
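Throughout, for viability, T/C: 100% = DMSO vehicle control wells.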

With `Cc1nc(N2CCC3(CC2)COC(C)C3N)c(CO)nc1Sc1ccnc(N)c1Cl` (stereo unspecified) + C#Cc1c(F)ccc2cc(O)cc(-c3ncc4c(N5CC6CCC(C5)N6)nc(OCC56CCCN5CC(F)C6)nc4c3F)c12 the IC50 (second compound 0.0316 µM) was > 10000 nM, the IC50 (second compound 0.1 µM) was > 10000 nM and the IC50 (second compound 0.316 µM) was > 10000 nM. The IC50 (second compound 1 µM) was > 10000 nM, the IC50 (second compound 3.16 µM) was > 10000 nM and the IC50 (second compound 10 µM) was < 31.6 nM. It also gave a viability, T/C [1] of 117%, a viability, T/C [2] of 91.8% and a viability, T/C [3] of 100%. For the same compound, the viability, T/C [4] was 97.3%, the viability, T/C [5] was 89.8% and the viability, T/C [6] was 88.3%. It also gave a viability, T/C [7] of 103%, a viability, T/C [8] of 96.6% and a viability, T/C [9] of 96.2%. It also gave a viability, T/C [10] of 87.1%, a viability, T/C [11] of 97.2% and a viability, T/C [12] of 86.3%. The viability, T/C [13] was 101%, the viability, T/C [14] was 102% and the viability, T/C [15] was 102%. For the same compound, the viability, T/C [16] was 98.2%, the viability, T/C [17] was 103% and the viability, T/C [18] was 99%. For the same compound, the viability, T/C [19] was 104%, the viability, T/C [20] was 108% and the viability, T/C [21] was 107%. For the same compound, the viability, T/C [22] was 104%, the viability, T/C [23] was 96.6% and the viability, T/C [24] was 108%. It also gave a viability, T/C [25] of 96.8%, a viability, T/C [26] of 108% and a viability, T/C [27] of 86.3%. The viability, T/C [28] was 106%, the viability, T/C [29] was 103% and the viability, T/C [30] was 90.8%. The viability, T/C [31] was 37.6%, the viability, T/C [32] was 45.1% and the viability, T/C [33] was 49%. The viability, T/C [34] was 52.2%, the viability, T/C [35] was 38.2% and the viability, T/C [36] was 15.8%.

With `NC1c2ccccc2OC12CCN(c1cnc3c(N4CCCc5ncccc54)n[nH]c3n1)CC2` (stereo unspecified) + C#Cc1c(F)ccc2cc(O)cc(-c3ncc4c(N5CC6CCC(C5)N6)nc(OCC56CCCN5CC(F)C6)nc4c3F)c12 the IC50 (second compound 0.0316 µM) was > 10000 nM, the IC50 (second compound 0.1 µM) was > 10000 nM and the IC50 (second compound 0.316 µM) was > 10000 nM. For the same compound, the IC50 (second compound 1 µM) was > 10000 nM, the IC50 (second compound 3.16 µM) was > 10000 nM and the IC50 (second compound 10 µM) was 35.7 nM. For the same compound, the viability, T/C [1] was 95.6%, the viability, T/C [2] was 90.5% and the viability, T/C [3] was 90.5%. It also gave a viability, T/C [4] of 88.5%, a viability, T/C [5] of 91.5% and a viability, T/C [6] of 74.9%. The viability, T/C [7] was 91.8%, the viability, T/C [8] was 89.3% and the viability, T/C [9] was 103%. It also gave a viability, T/C [10] of 91.7%, a viability, T/C [11] of 87.3% and a viability, T/C [12] of 74.4%. For the same compound, the viability, T/C [13] was 99.5%, the viability, T/C [14] was 98% and the viability, T/C [15] was 94%. The viability, T/C [16] was 88.1%, the viability, T/C [17] was 88.7% and the viability, T/C [18] was 77.1%. It also gave a viability, T/C [19] of 109%, a viability, T/C [20] of 105% and a viability, T/C [21] of 100%. It also gave a viability, T/C [22] of 91.5%, a viability, T/C [23] of 103% and a viability, T/C [24] of 76%. It also gave a viability, T/C [25] of 102%, a viability, T/C [26] of 93.7% and a viability, T/C [27] of 109%. For the same compound, the viability, T/C [28] was 99.5%, the viability, T/C [29] was 95.9% and the viability, T/C [30] was 50.4%. The viability, T/C [31] was 49%, the viability, T/C [32] was 48% and the viability, T/C [33] was 25.5%. It also gave a viability, T/C [34] of 22.5%, a viability, T/C [35] of 9.18% and a viability, T/C [36] of 2.12%.

For `Nc1ccn(C2OC(CO)C(O)C2(F)F)c(=O)n1` (stereo unspecified) + C#Cc1c(F)ccc2cc(O)cc(-c3ncc4c(N5CC6CCC(C5)N6)nc(OCC56CCCN5CC(F)C6)nc4c3F)c12, the IC50 (second compound 0.0316 µM) was 7.32 nM, the IC50 (second compound 0.1 µM) was 7.52 nM and the IC50 (second compound 0.316 µM) was 7.89 nM. For the same compound, the IC50 (second compound 1 µM) was 7.11 nM, the IC50 (second compound 3.16 µM) was 7.22 nM and the IC50 (second compound 10 µM) was < 3.16 nM. It also gave a viability, T/C (second compound 0.0316 µM, first compound 0.00316 µM) of 105%, a viability, T/C (second compound 0.0316 µM, first compound 0.01 µM) of 29.7% and a viability, T/C [1] of 6.72%. The viability, T/C [2] was 5%, the viability, T/C [3] was 5.45% and the viability, T/C [4] was 5.38%. The viability, T/C (second compound 0.1 µM, first compound 0.00316 µM) was 92.7%, the viability, T/C (second compound 0.1 µM, first compound 0.01 µM) was 36% and the viability, T/C [7] was 7.32%. For the same compound, the viability, T/C [8] was 5.55%, the viability, T/C [9] was 5.77% and the viability, T/C [10] was 5.83%. It also gave a viability, T/C (second compound 0.316 µM, first compound 0.00316 µM) of 97.4%, a viability, T/C (second compound 0.316 µM, first compound 0.01 µM) of 37.7% and a viability, T/C [13] of 7.43%. It also gave a viability, T/C [14] of 4.86%, a viability, T/C [15] of 5.48% and a viability, T/C [16] of 5.75%. For the same compound, the viability, T/C (second compound 1 µM, first compound 0.00316 µM) was 91.7%, the viability, T/C (second compound 1 µM, first compound 0.01 µM) was 32.4% and the viability, T/C [19] was 8.35%. For the same compound, the viability, T/C [20] was 5.57%, the viability, T/C [21] was 4.9% and the viability, T/C [22] was 5.48%. It also gave a viability, T/C (second compound 3.16 µM, first compound 0.00316 µM) of 99%, a viability, T/C (second compound 3.16 µM, first compound 0.01 µM) of 30.7% and a viability, T/C [25] of 7.65%. The viability, T/C [26] was 6.3%, the viability, T/C [27] was 5.81% and the viability, T/C [28] was 5.63%. The viability, T/C (second compound 10 µM, first compound 0.00316 µM) was 46.4%, the viability, T/C (second compound 10 µM, first compound 0.01 µM) was 25.8% and the viability, T/C [31] was 7.48%. The viability, T/C [32] was 6.16%, the viability, T/C [33] was 6.42% and the viability, T/C [34] was 5.33%.
